Experimental data reported in US9217007B2, “Platinum anticancer agents” (priority 2011, dated 2015).
Where two headings read alike, the source gives them in different places.

Legend:
DNA in HEK cells = assay: DNA-binding of the platinum agents in HEK cells; type: cell-based, human; settings: compared to cisplatin
Description: After incubation, genomic DNA was isolated from the cell pellets using Wizard® Genomic DNA Purification Kit (Promega, Madison, Wis.) following the manufacturer's instructions. The genomic DNA was used for determination of platinum (ICP-MS) and DNA content (absorption spectrometry at 260 nm). Platinum-DNA adduct formation was expressed as amount of platinum per amount of DNA.

[1] = Rate of inactivation of platinums by glutathione; type: physicochemical; settings: platinum drug 100 μM; [GSH] 6.75 mM; [NaCl] 4.62; absorption at 260 nm
Description: Platinum-based compound as described herein at a 100 μM concentration was reacted with physiological concentration of GSH and the absorption at 260 nm was measured to monitor the progress of the reaction. Absorption as a function of time (0≦t≦1440 min) for platinum concentration of zero was subtracted from the absorption at each platinum concentration. Initial rates were calculated from the early time points as change in absorption over change in time.
One major pathway by which these platinum drugs get inactivated in vivo is by reaction with glutathione (GSH). We mimicked this reaction with GSH in vitro using physiological concentrations of GSH and salts. Increase in absorption at 260 nm over period of time was monitored for progress of the reaction and initial rates were calculated from the early time points in terms of the change in absorption over change in time.

[2] = test system: OCT2 (human, expressed in the cells; OCT2-dependent cytotoxicity); assay: in vitro; settings: human
Description: (§1) Evaluation of compounds was carried out in an in-vitro cytotoxicity assay, involving a comparison between the effect of the platinum complex on human embryonic kidney cells (HEK293) transfected with human OCT1 (HEK-hOCT1) and OCT2 (HEK-hOCT2) versus those that are not transfected.
(§2) HEK293 cell lines, stably expressing hOCT1, hOCT2 and hOCT3. The following colon cancer cell lines were also used: HCT116, RKO, DLD, HT29 and SW620 purchased from American Type Tissue Culture collection.
(§3) After overnight incubation, the platinum compound with or without an OCT inhibitor (disopyramide) was then be added to the culture medium to various concentrations. After exposure to the drug for 7 hours, the drug-containing medium was replaced with fresh, drug-free medium and the incubation was continued for 72 hours.
as §1, with “Evaluation of all three classes” for “Evaluation”

[3] = test system: OCT1 (human, expressed in the cells; OCT1-dependent cytotoxicity); assay: in vitro; settings: human
Description: as §1, §2, §3
as §1, with “Evaluation of all three classes” for “Evaluation”

[4] = test system: SKNSH neuroblastoma cell line; assay: Toxicity against neuroblastoma cell line SKNSH; type: cell-based
Description: (§4) Compounds SM-73 and SM-85 are assayed against an array of neuroblastoma cell lines.

[5] = test system: SHEP neuroblastoma cell line; assay: Toxicity against neuroblastoma cell line SHEP; type: cell-based
Description: as §4

HEK-hNET = assay: Toxicity toward HEK cells stably transfected with Norepinephrine Transporter; type: cell-based, human; settings: selectivity HEK-EV vs HEK-hNET
Description: The term “resistance factor” is a measure of selectivity conferred upon the platinum-based compound by the inclusion of ligands that promote recognition by NET.
as §3

[6] = test system: Kelly neuroblastoma cell line; assay: Toxicity against neuroblastoma cell line Kelly; type: cell-based
Description: as §4

[7] = test system: HEK-MOCK (untransfected HEK293 cells); assay: MTT cytotoxicity assay in untransfected HEK293 cells; type: cell-based, human; settings: 7 h drug exposure then 72 h drug-free
Description: as §1, §3
as §1, with “Evaluation of all three classes” for “Evaluation”

[8] = test system: NB1691 neuroblastoma cell line; assay: Toxicity against neuroblastoma cell line NB1691; type: cell-based
Description: as §4

[9] = test system: SHSY5Y neuroblastoma cell line; assay: Toxicity against neuroblastoma cell line SHSY5Y; type: cell-based
Description: as §4

HEK-hOCT3 = assay: MTT cytotoxicity assay in HEK293 stably transfected with human OCT3; type: cell-based
From the text: HEK293 cell lines, stably expressing hOCT1, hOCT2 and hOCT3.

[10] = test system: SKNMC neuroblastoma cell line; assay: Toxicity against neuroblastoma cell line SKNMC; type: cell-based
Description: as §4

[11] = test system: LANS neuroblastoma cell line; assay: Toxicity against neuroblastoma cell line LANS; type: cell-based
Description: as §4

[12] = test system: HT29 colon cancer cell line; assay: Cytotoxicity in colon cancer cell line HT29 with and without cimetidine; type: cell-based
Description: (§5) Platinum uptake and platinum-DNA adduct formation was then measured in these transfected cell lines. In some cases, chemical inhibitors of OCT1 were used. In general, we used disopyramide (150 μM). […] In some cases, cimetidine (3 mM) was used as a general OCT inhibitor. Cytotoxicity of some of the leads was determined in colon cancer cell lines. Described below in some detail are the methods for these studies.
as §2, §3

[13] = test system: SW620 colon cancer cell line; assay: Cytotoxicity in colon cancer cell line SW620 with and without cimetidine; type: cell-based
Description: as §5, §2, §3

[14] = test system: RKO colon cancer cell line; assay: Cytotoxicity in colon cancer cell line RKO with and without cimetidine; type: cell-based
Description: as §5, §2, §3

[15] = test system: DLD colon cancer cell line; assay: Cytotoxicity in colon cancer cell line DLD with and without cimetidine; type: cell-based
Description: as §5, §2, §3

[16] = test system: HCT116 colon cancer cell line; assay: Cytotoxicity in colon cancer cell line HCT116 with and without cimetidine; type: cell-based
Description: as §5, §2, §3

neuroblastoma xenografts = assay: Antitumor efficacy against neuroblastoma xenografts in mice; type: in vivo; settings: compared to cisplatin (FIG. 8)
NET-expressing HEK cells = assay: Uptake of platinum compounds into NET-expressing HEK cells vs empty vector HEK cells; type: cell-based, human
From the text: The success of our targeting strategy can be gauged in-vitro also through comparing the uptake of the platinum complex into cells. The actual effects of this increased uptake can in turn be ascertained and quantified through comparison of DNA-binding of the platinum complexes.
Accumulation was normalized to protein content.

[17] = Toxicity evaluation of treated mice (CBC, kidney and liver function, ototoxicity); settings: mouse, in vivo
Description: An evaluation is being conducted in various body tissues/plasma to determine toxicity.
The SM-73 treated mice group was also evaluated for ototoxicity.

[18] = test system: HEK293 transfected with human OCT2 (HEK-hOCT2); assay: MTT cytotoxicity assay in HEK293 stably transfected with human OCT2; settings: read-out: IC50 HEK-hOCT2; HEK293 stably transfected with human OCT2; MTT, 7 h exposure then 72 h
Description: as §1, §2, §3
as §1, with “Evaluation of all three classes” for “Evaluation”

[19] = test system: HEK293 transfected with human OCT1 (HEK-hOCT1); assay: MTT cytotoxicity assay in HEK293 stably transfected with human OCT1; settings: read-out: IC50 HEK-hOCT1; HEK293 stably transfected with human OCT1; MTT, 7 h exposure then 72 h
Description: as §1, §2, §3
as §1, with “Evaluation of all three classes” for “Evaluation”

[20] = HT29, absence of cimetidine, read-out: IC50
[21] = HT29, cimetidine 3 mM, read-out: IC50 (in presence of cimetidine)
[22] = SW620, absence of cimetidine, read-out: IC50
[23] = SW620, cimetidine 3 mM, read-out: IC50 (in presence of cimetidine)
[24] = RK0, absence of cimetidine, read-out: IC50
[25] = RK0, cimetidine 3 mM, read-out: IC50 (in presence of cimetidine)
[26] = absence of cimetidine, read-out: IC50
[27] = cimetidine 3 mM, read-out: IC50 (in presence of cimetidine)
[28] = HCT116, absence of cimetidine, read-out: IC50
[29] = HCT116, cimetidine 3 mM, read-out: IC50 (in presence of cimetidine)

| SMILES | DNA-binding (DNA in HEK cells) | Initial Rate of reaction with glutathione [1] [Absorption unit/hr] | IC50 [4] [µM] | IC50 [5] [µM] | Resistance Factor (HEK-hNET) | IC50 [6] [µM] | IC50 [7] [µM] | IC50 [8] [µM] | IC50 [9] [µM] | IC50 (HEK-hOCT3) [µM] | IC50 [10] [µM] | IC50 [11] [µM] | IC50 [12, 20] [µM] | IC50 [12, 21] [µM] | IC50 [13, 22] [µM] | IC50 [13, 23] [µM] | IC50 [14, 24] [µM] | IC50 [14, 25] [µM] | IC50 [15, 26] [µM] | IC50 [15, 27] [µM] | also measured |
| --- | --- | --- | --- | --- | --- | --- | --- | --- | --- | --- | --- | --- | --- | --- | --- | --- | --- | --- | --- | --- | --- |
| [NH2][Pt]([Cl])([Cl])[N]1CCN(c2ccc(F)cc2)CC1 [SM85] | increased DNA-binding | 0.1037 |  |  |  |  |  |  |  |  |  |  |  |  |  |  |  |  |  |  | IC50 at 7 h [2]: 0.208 ± 0.035 µM; IC50 at 7 h [3]: 0.071 ± 0.014 µM |
| N.N.[Cl][Pt][Cl] [Cisplatin] |  | 0.1173 | 3.77 | 24.5 | 1.8 | 19.9 | 2.62 | 12.4 | 18.6 | 4.84 | 9.63 | 6.16 |  |  |  |  |  |  |  |  |  |
| [NH2][Pt]([NH2])([Cl])[N]1CCN(c2ccccc2)CC1 [SM78] |  |  |  |  |  |  |  |  |  |  |  |  |  |  |  |  |  |  |  |  | IC50 at 7 h ([2]; IC50 HEK-hOCT2, HEK293 stably transfected with human OCT2, MTT, 7 h exposure then 72 h): 2.35 ± 0.313 µM; IC50 at 7 h ([3]; IC50 HEK-hOCT1, HEK293 stably transfected with human OCT1, MTT, 7 h exposure then 72 h): 0.988 ± 0.03 µM |
| O=C1[O][Pt]2([NH][C@@H]3CCCC[C@H]3[NH]2)[O]C1=O [Oxaliplatin, reference compound] |  | 0.0909 | 15.5 | 24.8 |  | 20.4 | 1.62 | 29.4 | 18.8 | 1.32 | 19.9 | 15.9 | 13.2 ± 3.3 | 61.2 | 7.16 ± 3.59 | 40 | 2.9 ± 0.77 | 41.7 | 21.5 ± 5.3 | 151 | IC50 [16, 28]: 6.14 ± 1.8 µM; IC50 [16, 29]: 66.5 µM |
| [NH3+][Pt-2]([Cl])([Cl])[NH+]1CCN(c2ccccc2)CC1 [SM73] | increased DNA-binding | 0.1132 | 3.58 | 16.5 | 5.5 | 13.1 | 12.3 ± 0.759 | 9.72 | 13.8 |  | 13.6 | 5.24 | 14.5 ± 8.54 | 109 | 33 ± 5.27 | 147 | 19.6 ± 1.17 | 75.8 | 48.9 ± 8.5 | 195 | Resistance Factor ([12]; HT29, ratio of IC50 in presence and absence of cimetidine): >7; antitumor efficacy against neuroblastoma xenografts (neuroblastoma xenografts): retains the antitumor efficacy of cisplatin to a significant extent; selectivity for accumulation into NET-expressing HEK cells (NET-expressing HEK cells): 3.25 fold; ototoxicity [17]: No ototoxicity was observed; Resistance Factor ([13]; SW620, ratio of IC50 in presence and absence of cimetidine): 4.45; Resistance Factor ([14]; RK0, ratio of IC50 in presence and absence of cimetidine): 3.87; Resistance Factor ([15]; ratio of IC50 in presence and absence of cimetidine): 3.98; IC50 [18]: 0.005 ± 0.001 µM; IC50 [19]: 0.036 ± 0.004 µM; IC50 [16, 28]: 18.3 ± 2.28 µM; IC50 [16, 29]: 71.2 µM; Resistance Factor ([16]; HCT116, ratio of IC50 in presence and absence of cimetidine): 3.88 |
| [NH2][Pt]([NH2])([Cl])[N]1CCN(c2ccccc2)CC1 [SM71] |  |  |  |  |  |  |  |  |  |  |  |  |  |  |  |  |  |  |  |  | IC50 [18]: 1.26 ± 0.319 µM; IC50 [19]: 0.745 ± 0.003 µM |
